Experimental data from ChEMBL document CHEMBL1201862, “PubChem BioAssay data set” (2004).
Active and inactive are the calls of the source. Rule as the data show it: actives have a measured IC50 and inactives only a lower limit.

These molecules were tested against Envelope glycoprotein gp160 (Human immunodeficiency virus 1, UniProt Q6QLK5) (assay: inhibitors of HIV fusion peptide binding, primary screen, biochemical, uHTS, fluorescence dequenching (AID 1986)).
Envelope glycoprotein gp160, sequence (Q6QLK5 whole entry, the tested form may be a part): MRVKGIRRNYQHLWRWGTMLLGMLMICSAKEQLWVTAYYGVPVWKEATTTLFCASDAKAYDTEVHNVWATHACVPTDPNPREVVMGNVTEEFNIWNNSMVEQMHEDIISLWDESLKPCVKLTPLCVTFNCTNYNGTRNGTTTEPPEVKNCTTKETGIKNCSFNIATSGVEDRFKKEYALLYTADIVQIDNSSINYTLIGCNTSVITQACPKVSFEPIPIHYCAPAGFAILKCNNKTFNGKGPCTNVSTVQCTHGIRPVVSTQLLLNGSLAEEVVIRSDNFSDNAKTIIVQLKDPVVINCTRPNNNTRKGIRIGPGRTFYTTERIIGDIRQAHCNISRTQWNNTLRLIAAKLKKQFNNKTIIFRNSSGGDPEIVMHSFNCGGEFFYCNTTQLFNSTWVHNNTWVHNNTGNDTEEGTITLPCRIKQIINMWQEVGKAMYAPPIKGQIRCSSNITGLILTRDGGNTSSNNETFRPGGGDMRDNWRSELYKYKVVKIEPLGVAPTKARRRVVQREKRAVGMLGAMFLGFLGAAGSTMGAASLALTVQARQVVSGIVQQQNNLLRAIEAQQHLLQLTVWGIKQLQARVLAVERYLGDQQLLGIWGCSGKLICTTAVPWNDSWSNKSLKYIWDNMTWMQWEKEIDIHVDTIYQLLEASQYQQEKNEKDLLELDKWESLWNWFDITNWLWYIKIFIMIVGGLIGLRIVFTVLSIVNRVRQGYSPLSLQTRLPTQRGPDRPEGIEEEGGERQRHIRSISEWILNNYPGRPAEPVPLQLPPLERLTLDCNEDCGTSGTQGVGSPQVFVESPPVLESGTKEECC
In the case of `CCOc1cc(/C=N/NC2=NC(=O)C(CC(=O)O)S2)ccc1OCc1ccc(Cl)cc1` (stereo not drawn), the IC50 is reported as 24.6 µM (active). In the case of `CCCOc1ccc(C(=O)NNC(=S)NC(=O)c2cc(-c3ccc(Cl)cc3)nc3ccccc23)cc1`, the IC50 is reported as 19.9 µM (active). For `O=C1/C(=C2\C(=O)N(Cc3ccc(F)cc3)c3ccccc32)SC(=S)N1CCS(=O)(=O)O`, the IC50 was 15 µM (active).
